Data reported in ChEMBL document CHEMBL5634100, “Novel spiro[pyrrolidine-2,3'-quinoline]-2'-one derivatives containing piperazine fragment as potential chitin synthase inhibitors and antifungal agents: Design, synthesis and biological evaluation” (Eur J Med Chem, 2023).
Converted amounts (≈) assume the structure as drawn.

Tests used:
[1] = test system: Cryptococcus neoformans; test: Antimicrobial activity against Cryptococcus neoformans ATCC 32719 assessed as inhibition of cell wall synthesis in presence of sorbitol; assay type: functional
[2] = test system: Candida albicans; test: Additive antimicrobial activity against Candida albicans ATCC 76615 assessed as fractional inhibitory concentration index incubated for 24 hrs in presence of polyoxin B by checkerboard method; assay type: functional
[3] = test system: Candida albicans; test: Antimicrobial activity against Candida albicans ATCC 76615 assessed as inhibition of cell wall synthesis in presence of sorbitol; assay type: functional
[4] = test system: Aspergillus fumigatus; test: Antimicrobial activity against Aspergillus fumigatus GIMCC 3.19 incubated for 24 hrs in presence of polyoxin B by checkerboard method; assay type: functional
[5] = test system: Candida albicans; test: Synergistic antimicrobial activity against Candida albicans ATCC 76615 assessed as fractional inhibitory concentration index incubated for 24 hrs in presence of fluconazole by checkerboard method; assay type: functional
[6] = test system: Cryptococcus neoformans; test: Antimicrobial activity against Cryptococcus neoformans ATCC 32719 incubated for 24 hrs in presence of fluconazole by checkerboard method; assay type: functional
[7] = test system: Aspergillus flavus; test: Antimicrobial activity against Fluconazole-resistant Aspergillus flavus ATCC 16870R incubated for 24 hrs by two fold serial dilution method; assay type: functional
[8] = test system: Candida albicans; test: Antimicrobial activity against fluconazole-resistant Candida albicans ATCC 76615R incubated for 24 hrs by two fold serial dilution method; assay type: functional
[9] = test system: Aspergillus flavus; test: Additive antimicrobial activity against Aspergillus flavus ATCC 16870 assessed as fractional inhibitory concentration index incubated for 24 hrs in presence of polyoxin B by checkerboard method; assay type: functional
[10] = test system: Candida albicans; test: Antimicrobial activity against micafungin-resistant Candida albicans ATCC 76615R incubated for 24 hrs by two fold serial dilution method; assay type: functional
[11] = test system: Aspergillus fumigatus; test: Antimicrobial activity against Aspergillus fumigatus GIMCC 3.19 incubated for 24 hrs in presence of fluconazole by checkerboard method; assay type: functional
[12] = test system: Aspergillus fumigatus; test: Synergistic antimicrobial activity against Aspergillus fumigatus GIMCC 3.19 assessed as fractional inhibitory concentration index incubated for 24 hrs in presence of polyoxin B by checkerboard method; assay type: functional
[13] = test system: Aspergillus fumigatus; test: Synergistic antimicrobial activity against Aspergillus fumigatus GIMCC 3.19 assessed as fractional inhibitory concentration index incubated for 24 hrs in presence of fluconazole by checkerboard method; assay type: functional
[14] = test system: Aspergillus flavus; test: Antimicrobial activity against Aspergillus flavus ATCC 16870 incubated for 24 hrs in presence of fluconazole by checkerboard method; assay type: functional
[15] = test system: Cryptococcus neoformans; test: Additive antimicrobial activity against Cryptococcus neoformans ATCC 32719 assessed as fractional inhibitory concentration index incubated for 24 hrs in presence of fluconazole by checkerboard method; assay type: functional
[16] = test system: Candida albicans; test: Antimicrobial activity against Candida albicans ATCC 76615 incubated for 24 hrs by two fold serial dilution method; assay type: functional
[17] = test system: Aspergillus flavus; test: Antimicrobial activity against Aspergillus flavus ATCC 16870 incubated for 24 hrs by two fold serial dilution method; assay type: functional
[18] = Inhibition of Candida tropicalis ATCC 750 chitin synthase using UDP-GlcNAc as substrate by TMB based microplate analyzer
[19] = test system: Aspergillus fumigatus; test: Antimicrobial activity against Fluconazole-resistant Aspergillus fumigatus GIMCC 3.19R incubated for 24 hrs by two fold serial dilution method; assay type: functional
[20] = test system: Aspergillus flavus; test: Antimicrobial activity against Aspergillus flavus ATCC 16870 incubated for 24 hrs in presence of polyoxin B by checkerboard method; assay type: functional
[21] = test system: Cryptococcus neoformans; test: Antimicrobial activity against Fluconazole-resistant Cryptococcus neoformans ATCC 32719R incubated for 24 hrs by two fold serial dilution method; assay type: functional
[22] = test system: Aspergillus flavus; test: Antimicrobial activity against Aspergillus flavus ATCC 16870 assessed as inhibition of cell wall synthesis in presence of sorbitol; assay type: functional
[23] = test system: Candida albicans; test: Antimicrobial activity against Candida albicans ATCC 76615 incubated for 24 hrs in presence of fluconazole by checkerboard method; assay type: functional
[24] = test system: Cryptococcus neoformans; test: Antimicrobial activity against Cryptococcus neoformans ATCC 32719 incubated for 24 hrs in presence of polyoxin B by checkerboard method; assay type: functional
[25] = test system: Cryptococcus neoformans; test: Antimicrobial activity against Cryptococcus neoformans ATCC 32719 incubated for 24 hrs by two fold serial dilution method; assay type: functional
[26] = test system: Aspergillus flavus; test: Additive antimicrobial activity against Aspergillus flavus ATCC 16870 assessed as fractional inhibitory concentration index incubated for 24 hrs in presence of fluconazole by checkerboard method; assay type: functional
[27] = test system: Candida albicans; test: Antimicrobial activity against Candida albicans ATCC 76615 incubated for 24 hrs in presence of polyoxin B by checkerboard method; assay type: functional
[28] = test system: Aspergillus fumigatus; test: Antimicrobial activity against Aspergillus fumigatus GIMCC 3.19 incubated for 24 hrs by two fold serial dilution method; assay type: functional
[29] = test system: Candida tropicalis; test: Inhibition of Candida tropicalis ATCC 750 chitin synthase using UDP-GlcNAc as substrate at 300 ug/ml by TMB based microplate analyzer relative to control; conditions: dose 300.0 µg/ml
[30] = test system: Cryptococcus neoformans; test: Additive antimicrobial activity against Cryptococcus neoformans ATCC 32719 assessed as fractional inhibitory concentration index incubated for 24 hrs in presence of polyoxin B by checkerboard method; assay type: functional
[31] = test system: Aspergillus fumigatus; test: Antimicrobial activity against Aspergillus fumigatus GIMCC 3.19 assessed as inhibition of cell wall synthesis in presence of sorbitol; assay type: functional
[32] = test system: Aspergillus flavus; test: Synergistic antimicrobial activity against Aspergillus flavus ATCC 16870 assessed as fractional inhibitory concentration index incubated for 24 hrs in presence of fluconazole by checkerboard method; assay type: functional
[33] = test system: Cryptococcus neoformans; test: Synergistic antimicrobial activity against Cryptococcus neoformans ATCC 32719 assessed as fractional inhibitory concentration index incubated for 24 hrs in presence of fluconazole by checkerboard method; assay type: functional
[34] = test system: Cryptococcus neoformans; test: Synergistic antimicrobial activity against Cryptococcus neoformans ATCC 32719 assessed as fractional inhibitory concentration index incubated for 24 hrs in presence of polyoxin B by checkerboard method; assay type: functional
[35] = test system: Candida albicans; test: Synergistic antimicrobial activity against Candida albicans ATCC 76615 assessed as fractional inhibitory concentration index incubated for 24 hrs in presence of polyoxin B by checkerboard method; assay type: functional
[36] = test system: Aspergillus fumigatus; test: Additive antimicrobial activity against Aspergillus fumigatus GIMCC 3.19 assessed as fractional inhibitory concentration index incubated for 24 hrs in presence of fluconazole by checkerboard method; assay type: functional
[37] = test system: Aspergillus fumigatus; test: Additive antimicrobial activity against Aspergillus fumigatus GIMCC 3.19 assessed as fractional inhibitory concentration index incubated for 24 hrs in presence of polyoxin B by checkerboard method; assay type: functional
[38] = test system: Aspergillus flavus; test: Synergistic antimicrobial activity against Aspergillus flavus ATCC 16870 assessed as fractional inhibitory concentration index incubated for 24 hrs in presence of polyoxin B by checkerboard method; assay type: functional
[39] = test system: Candida albicans; test: Additive antimicrobial activity against Candida albicans ATCC 76615 assessed as fractional inhibitory concentration index incubated for 24 hrs in presence of fluconazole by checkerboard method; assay type: functional

O=C(c1cccc(F)c1)N1CCN(CC(=O)N2CCCC23Cc2ccccc2NC3=O)CC1 (stereo not drawn)
MIC [1]: 64 µg/mL | fractional inhibitory concentration index (FICI) [2]: 1.063 | MIC [3]: 64 µg/mL | MIC [4]: 4 µg/mL | fractional inhibitory concentration index (FICI) [5]: 0.75 | MIC [6]: 2 µg/mL | MIC [7]: 32 µg/mL (≈ 71 µM) | MIC [8]: 32 µg/mL (≈ 71 µM) | fractional inhibitory concentration index (FICI) [9]: 1.25 | MIC [10]: 128 µg/mL (≈ 284 µM) | MIC [11]: 1 µg/mL | fractional inhibitory concentration index (FICI) [12]: 0.625 | fractional inhibitory concentration index (FICI) [13]: 0.5 | MIC [14]: 2 µg/mL | fractional inhibitory concentration index (FICI) [15]: 1.25 | MIC [16]: 1 µg/mL (≈ 2.22 µM) | MIC [17]: 4 µg/mL (≈ 8.88 µM) | IC50 [18]: 140 µM | MIC [19]: 32 µg/mL (≈ 71 µM) | MIC [20]: 2 µg/mL | MIC [21]: 32 µg/mL (≈ 71 µM) | MIC [22]: 64 µg/mL | MIC [23]: 1 µg/mL | MIC [24]: 2 µg/mL | MIC [25]: 8 µg/mL (≈ 17.8 µM) | fractional inhibitory concentration index (FICI) [26]: 1.25 | MIC [27]: 0.5 µg/mL | MIC [28]: 1 µg/mL (≈ 2.22 µM) | inhibition [29]: 76.8% | fractional inhibitory concentration index (FICI) [30]: 1.125 | MIC [31]: 128 µg/mL

O=C(c1cc([N+](=O)[O-])ccc1Cl)N1CCN(CC(=O)N2CCCC23Cc2ccccc2NC3=O)CC1 (stereo not drawn)
MIC [1]: 256 µg/mL | fractional inhibitory concentration index (FICI) [32]: 0.75 | MIC [3]: 32 µg/mL | MIC [4]: 2 µg/mL | fractional inhibitory concentration index (FICI) [5]: 1 | MIC [6]: 4 µg/mL | MIC [7]: 32 µg/mL (≈ 62.5 µM) | fractional inhibitory concentration index (FICI) [33]: 0.625 | fractional inhibitory concentration index (FICI) [34]: 0.5 | fractional inhibitory concentration index (FICI) [35]: 0.75 | MIC [8]: 32 µg/mL (≈ 62.5 µM) | fractional inhibitory concentration index (FICI) [9]: 1.125 | MIC [10]: 32 µg/mL (≈ 62.5 µM) | MIC [11]: 1 µg/mL | MIC [14]: 4 µg/mL | MIC [16]: 1 µg/mL (≈ 1.95 µM) | MIC [17]: 1 µg/mL (≈ 1.95 µM) | IC50 [18]: 100 µM | MIC [19]: 32 µg/mL (≈ 62.5 µM) | fractional inhibitory concentration index (FICI) [36]: 1.25 | MIC [20]: 1 µg/mL | MIC [21]: 128 µg/mL (≈ 250 µM) | fractional inhibitory concentration index (FICI) [37]: 1.25 | MIC [22]: 64 µg/mL | MIC [23]: 2 µg/mL | MIC [24]: 4 µg/mL | MIC [25]: 4 µg/mL (≈ 7.81 µM) | MIC [27]: 2 µg/mL | MIC [28]: 4 µg/mL (≈ 7.81 µM) | inhibition [29]: 82.9% | MIC [31]: 128 µg/mL

O=C(c1ccc([N+](=O)[O-])cc1)N1CCN(CC(=O)N2CCCC23Cc2ccccc2NC3=O)CC1 (stereo not drawn)
MIC [1]: 64 µg/mL | fractional inhibitory concentration index (FICI) [32]: 0.75 | fractional inhibitory concentration index (FICI) [2]: 1.125 | MIC [3]: 64 µg/mL | MIC [4]: 4 µg/mL | MIC [6]: 2 µg/mL | MIC [7]: 128 µg/mL (≈ 268 µM) | fractional inhibitory concentration index (FICI) [33]: 0.75 | fractional inhibitory concentration index (FICI) [34]: 0.5 | fractional inhibitory concentration index (FICI) [38]: 0.375 | MIC [8]: 32 µg/mL (≈ 67 µM) | MIC [10]: 128 µg/mL (≈ 268 µM) | MIC [11]: 2 µg/mL | fractional inhibitory concentration index (FICI) [12]: 0.75 | fractional inhibitory concentration index (FICI) [13]: 1 | MIC [14]: 2 µg/mL | MIC [16]: 2 µg/mL (≈ 4.19 µM) | MIC [17]: 2 µg/mL (≈ 4.19 µM) | IC50 [18]: 110 µM | MIC [19]: 64 µg/mL (≈ 134 µM) | MIC [20]: 1 µg/mL | MIC [21]: 64 µg/mL (≈ 134 µM) | MIC [22]: 32 µg/mL | MIC [23]: 0.5 µg/mL | MIC [24]: 4 µg/mL | MIC [25]: 2 µg/mL (≈ 4.19 µM) | MIC [27]: 1 µg/mL | fractional inhibitory concentration index (FICI) [39]: 1.125 | MIC [28]: 1 µg/mL (≈ 2.09 µM) | inhibition [29]: 80.2% | MIC [31]: 64 µg/mL
